# Read-outs that look alike come from different tables or passages of the source.
# Columns and labels:
# Assay in all cases: microbe, parasite or virus in culture
# Conditions in all cases: Staphylococcus aureus
# S. aureus SA0077 = test system: S. aureus SA0077
# S. aureus SA0085 = test system: S. aureus SA0085
# S. aureus SA0422 = test system: S. aureus SA0422
# S. aureus SA0736 = test system: S. aureus SA0736
# S. aureus ATCC 29213 = test system: S. aureus ATCC 29213
# [1] = SA0085, read-out: MIC values, Table S1: SA0085 VAN (derivative after 40 passages on vancomycin)
# [2] = SA0422, read-out: MIC values, Table S1: SA0422 DAP (derivative after 40 passages on daptomycin)
# [3] = SA0422, read-out: MIC values, Table S1: SA0422 VAN (derivative after 40 passages on vancomycin)
# [4] = SA0736, read-out: MIC values, Table S1: SA0736 VAN (derivative after 40 passages on vancomycin)
# [5] = ATCC29213, read-out: MIC values
# [6] = ATCC29213, read-out: MIC values, Table S1: ATCC 29213 DAP (derivative after 40 passages on daptomycin)
Compound,"MIC (S. aureus SA0077; SA0077, read-out: MIC values) [µg/mL]","MIC (S. aureus SA0077; SA0077, read-out: MIC values, Table S1: SA0077 Abf (passages on antibiotic-free media)) [µg/mL]","MIC (S. aureus SA0077; SA0077, read-out: MIC values, Table S1: SA0077 VAN (derivative after 40 passages on vancomycin)) [µg/mL]","MIC (S. aureus SA0085; SA0085, read-out: MIC values) [µg/mL]",MIC (S. aureus SA0085; [1]) [µg/mL],"MIC (S. aureus SA0422; SA0422, read-out: MIC values) [µg/mL]",MIC (S. aureus SA0422; [2]) [µg/mL],MIC (S. aureus SA0422; [3]) [µg/mL],"MIC (S. aureus SA0736; SA0736, read-out: MIC values) [µg/mL]","MIC (S. aureus SA0736; SA0736, read-out: MIC values, Table S1: SA0736 DAP-W (40 passages on daptomycin, white colonies)) [µg/mL]","MIC (S. aureus SA0736; SA0736, read-out: MIC values, Table S1: SA0736 DAP-Y (40 passages on daptomycin, yellow colonies)) [µg/mL]",MIC (S. aureus SA0736; [4]) [µg/mL],MIC (S. aureus ATCC 29213; [5]) [µg/mL],MIC (S. aureus ATCC 29213; [6]) [µg/mL],"MIC (S. aureus ATCC 29213; ATCC29213, read-out: MIC values, Table S1: ATCC 29213 VAN (derivative after 40 passages on vancomycin)) [µg/mL]"
O=C(O)c1cn(C2CC2)c2cc(N3CCNCC3)c(F)cc2c1=O [Ciprofloxacin],16,32,64,256,32,128,32,64,128,64,32,16,0.25,–,–
CCC[C@@H]1C[C@@H](C(=O)N[C@@H]([C@H]2O[C@H](SC)[C@H](O)[C@@H](O)[C@H]2O)[C@H](C)Cl)N(C)C1 [Clindamycin],> 64,–,–,> 64,–,0.06,–,–,0.06,–,–,–,0.06,–,–
CC[C@H]1OC(=O)[C@H](C)[C@@H](O[C@H]2C[C@@](C)(OC)[C@@H](O)[C@H](C)O2)[C@H](C)[C@@H](O[C@@H]2O[C@H](C)C[C@H](N(C)C)[C@H]2O)[C@](C)(O)C[C@@H](C)C(=O)[C@H](C)[C@@H](O)[C@]1(C)O [Erythromycin],> 128,–,–,> 128,–,0.125,–,0.5,0.125,–,–,0.5,0.25,0.125,0.5
CC(=O)O[C@H]1C[C@@]2(C)[C@@H](C[C@@H](O)[C@H]3[C@@]4(C)CC[C@@H](O)[C@@H](C)[C@@H]4CC[C@@]32C)/C1=C(\CCC=C(C)C)C(=O)O [Fusidic acid],0.06,–,–,0.125,–,0.125,0.06,0.06,0.06,–,–,0.125,0.25,0.125,–
CNC(C)C1CCC(N)C(OC2C(N)CC(N)C(OC3OCC(C)(O)C(NC)C3O)C2O)O1 (stereo not drawn) [Gentamicin],> 128,–,–,> 128,–,> 128,–,–,> 128,–,–,–,1,0.25,–
CC(=O)NC[C@H]1CN(c2ccc(N3CCOCC3)c(F)c2)C(=O)O1 [Linezolid],1,–,–,4,1,2,1,–,1,–,–,2,2,1,–

# — publication PMC10215302 (Antibiotics, 2023)
